Legend:
LXRα-64 mRNA = assay: Regulation of LXRα-64 mRNA expression in differentiated THP-1 cells (real-time RT-PCR); type: cell-based, human; conditions: THP-1 cells differentiated with 150 nM phorbol ester for 3 days; 10 μM T0901317, 10 μM GW 3965, 10 μM Ciglitazone or 1 μM 9RA; vs vehicle; FIG. 8A
Experimental: Experiments were performed to determine whether agonists of wild type LXRα could also regulate the expression of LXRα variants. In these experiments, THP-1 cells were obtained from the American Type Culture Collection (ATCC) and cultured in RPMI medium containing 10% fetal bovine serum (FBS). For gene expression analysis in differentiated THP-1 cells, the THP1 cells were incubated in RPMI medium supplemented with 10% lipoprotein-deficient serum (LPDS) (Intracel Corp, Rockville, Md.) and treated with 150 nM phorbol ester for 3 days followed by treatment with LXR, RXR, or Peroxisome Proliferator-activated Receptor γ (PPARγ) agonist compounds, specifically with vehicle only (control), 10 μM T0901317, 10 μM GW 3965, 10 μM Ciglitazone, or 1 μM 9RA.

LXRα-42 mRNA = assay: Regulation of LXRα-42 mRNA expression in differentiated THP-1 cells (real-time RT-PCR); type: cell-based, human; conditions: THP-1 cells differentiated with 150 nM phorbol ester for 3 days; 10 μM T0901317, 10 μM GW 3965, 10 μM Ciglitazone or 1 μM 9RA; vs vehicle; FIG. 8B
Experimental: Each amplification mixture (50 μL) contained 50 ng of cDNA, 400 nM forward primer (SEQ ID NO:11), 400 nM reverse primer (SEQ ID NO:12), 200 nM dual-labeled fluorogenic probe (SEQ ID NO:13) (Applied Biosystems), 5.5 mM MgCl2, and 1.25 units Gold Taq (Applied Biosystems). The primers amplify a portion of the LXRα sequences that is about 80 nucleotides in length. The PCR thermocycling parameters were 95° C. for 10 minutes, and 40 cycles at 95° C. for 15 seconds, and 60° C. for 1 minute. Together with the samples and no-template controls, a serially diluted cDNA standard was analyzed in parallel. All samples were analyzed for human glyceraldehyde-3-phosphate dehydrogenase (GAPDH) expression in parallel in the same run using probe and primers from predeveloped assays for GAPDH (Applied Biosystems). All of the target gene expression was normalized to the expression of GAPDH. Quantitative analysis was performed using the threshold procedure, following the manufacturer's protocol (Perkin-Elmer), and relative amounts were calculated from the standard curve.
Experiments were performed to determine whether agonists of wild type LXRα could also regulate the expression of LXRα variants. In these experiments, THP-1 cells were obtained from the American Type Culture Collection (ATCC) and cultured in RPMI medium containing 10% fetal bovine serum (FBS). For gene expression analysis in differentiated THP-1 cells, the THP1 cells were incubated in RPMI medium supplemented with 10% lipoprotein-deficient serum (LPDS) (Intracel Corp, Rockville, Md.) and treated with 150 nM phorbol ester for 3 days followed by treatment with LXR, RXR, or Peroxisome Proliferator-activated Receptor γ (PPARγ) agonist compounds, specifically with vehicle only (control), 10 μM T0901317, 10 μM GW 3965, 10 μM Ciglitazone, or 1 μM 9RA. The primers and TaqMan probe for the real-time RT-PCR was described as in Example 4.

ABCA1 = ABCA1 expression in transfected HEK 293 cells (real-time quantitative PCR); type: cell-based, human; conditions: cotransfected with RXRα, FIG. 12
Experimental: (§1) In these experiments, coding regions of human LXRα, RXRα, and the LXRα variant (LXRα-64) were amplified by RT-PCR. The PCR products were subcloned into pCMV/myc/nuc expression vectors (Invitrogen, Carlsbad, Calif.) and used in the experiments described infra.
(§2) Expression experiments were conducted in HEK 293 cells that were propagated in Dulbecco's modified Eagle's medium (DMEM) containing 10% FBS. The cultured cells were transfected with either the expression vector containing a sequence encoding LXRα (wild type) or an expression vector encoding LXRα-64. All samples were co-transfected with an expression vector encoding an RXRα sequence. Transfections were performed in triplicate in 24 well plates using the Lipofectamine 2000 (Invitrogen, Carlsbad, Calif.). Each well was transfected with 200 ng of the LXRα expression vector (LXRα), the LXRα-64 expression vector (L64), or control plasmid (pCMV) along with 200 ng of human RXRα expression vector (RXRα). Additions to each well were adjusted to contain constant amounts of DNA and of pCMV expression vector. […] The levels of gene expression were determined with Real-time quantitative PCR assays using an Applied Biosystems 7700 sequence detector.

[1] = tested on: SREBP-c1 (an LXR target gene); assay: SREBP-1C expression in transfected HEK 293 cells (real-time quantitative PCR); type: cell-based; conditions: cotransfected with human RXRα, TO901317 and/or 9RA, 48 hours, compared to wild type LXRα with RXRα or empty vector with RXRα, FIG. 11
Experimental: as §1, §2

[2] = tested on: pGL3-LXRα-Luc reporter (LXR response element of LXRα promoter); assay: LXRα promoter (LXRE) luciferase reporter gene assay in transfected HEK 293 cells; type: cell-based, human; conditions: variant co-transfected with hRXRα and reporter, 10 μM T0901317, 24 hours, compared with co-transfected native LXRα, FIG. 9
Text: Human LXRα promoter (SEQ ID NO:14) was amplified by PCR using information from the published LXRα genomic structure and sequence (GenBank accession no. AC090589. A fragment spanning from -2660 to -2363 (relative to the transcription start site from exon 1) of LXRα promoter which contains the LXR response element ([NT] ID NO:20) ([…] et al. 2001, Mol. Cell. Biol. 21, 7558-7568 and Whitney et al., 2001, J. Biol. Chem. 276, 43509-43515) of LXRα was subcloned into pGL3 basic plasmid to create pGL-3-LXRα-Luc. The GenBank accession number of the LXRα “native” sequence used as a reference for the experiments and analysis disclosed herein is Genbank accession number for human LXRα is BC008819. Coding regions of human LXRα, and RXRα (GenBank accession number BC007925) were amplified by RT-PCR according to the sequences in GenBank and subcloned into pCMV/myc/nuc expression vectors (Invitrogen, Carlsbad, Calif.). The new LXRα-[…] coding region was subcloned into pCMV/myc/nuc expression vectors. HEK 293 cells were grown in Dulbecco's modified Eagle's medium (DMEM) containing 10% FBS. Transfections were performed in triplicate in 24 well plates using Lipofectamine 2000 (Invitrogen). […] The cells were harvested, analyzed, and the extracts were assayed for luciferase and β-galactosidase activity in a microplate luminometer/photometer reader (Lucy-1; Anthos, Salzburg, Austria). […]

CC1=C(/C=C/C(C)=C\C=C\C(C)=C\C(=O)O)C(C)(C)CCC1 [9-cis retinoic acid]
expression of LXRα-64 mRNA (LXRα-64 mRNA): increased
expression of LXRα-42 mRNA (LXRα-42 mRNA): increased

O=C(O)Cc1cccc(OCCCN(Cc2cccc(C(F)(F)F)c2Cl)CC(c2ccccc2)c2ccccc2)c1 [GW3965, 3-(3-(2-chloro-3-trifluoromethylbenzyl-2,2-diphenylethylamino)propoxy)phenylacetic acid]
expression of LXRα-64 mRNA (LXRα-64 mRNA): increased
expression of LXRα-42 mRNA (LXRα-42 mRNA): increased

O=S(=O)(c1ccccc1)N(CC(F)(F)F)c1ccc(C(O)(C(F)(F)F)C(F)(F)F)cc1 [T0901317, N-(2,2,2,-trifluoro-ethyl)-n-[4-(2,2,2,-trifluoro-1-hydroxy-1-trifluoromethyl-ethyl)-phenyl]-benzenesulfonamide]
expression of LXRα-64 mRNA (LXRα-64 mRNA): increased
expression of LXRα-42 mRNA (LXRα-42 mRNA): increased

B1: LXRα-64: human LXRα splice variant with an extra 64 amino acids in its ligand binding domain (SEQ ID NO:4) (protein, listed as Homo sapiens)
chain: MSLWLGAPVPDIPPDSAVELWKPGAQDASSQAQGGSSCILREEARMPHSAGGTAGVGLEAAEPTALLTRAEPPSEPTEIRPQKRKKGPAPKMLGNELCSVCGDKASGFHYNVLSCEGCKGFFRRSVIKGAHYICHSGGHCPMDTYMRRKCQECRLRKCRQAGMREECVLSEEQIRLKKLKRQEEEQAHATSLPPRRSSPPQILPQLSPEQLGMIEKLVAAQQQCNRRSFSDRLRVTPWPMAPDPHSREARQQRFAHFTELAIVSVQEIVDFAKQLPGFLQLSREDQIALLKTSAIEVAGEGQGMKGEAEWDYLWEGPPDIELGEPNLLGSRDEENRPPWKRPCSKTSPPSPRLRFAACVQVMLLETSRRYNPGSESITFLKDFSYNREDFAKAGLQVEFINPIFEFSRAMNELQLNDAEFALLIAISIFSADRPNVQDQLQVERLQHTYVEALHAYVSIHHPHDRLMFPRMLMKLVSLRTLSSVHSEQVFALRLQDKKLPPLLSEIWDVHE
LXR as well as LXR+RXR-ligand dependent induction of ABCA1 expression (ABCA1; TO901317 and/or 9RA, 48 hours, compared to native LXRα and RXRα or empty vector with RXRα): less
basal expression of ABCA1 (ABCA1; no ligand): not affected
basal, LXR ligand-dependent, and LXR+RXR ligand-dependent induction of SREBP-c1 expression [1]: sharply decreased
LXR ligand-dependent activation of reporter gene [2]: sharply decreased
